# Tests used:
# [1] = molecular target: MASP-2 CCP2-SP (Homo sapiens (Human), UniProt O00187); assay: MASP-2 co-crystallization, X-ray crystallography and structure analysis (H-bonds, van der Waals contacts); parameters: van der Waals contact distance, MASP-2 HIS 483 atom CD2 / van der Waals contact distance, MASP-2 HIS 483 atom NE2 / van der Waals contact distance, SER 654 C to compound atom / van der Waals contact distance, SER 654 O to compound atom / van der Waals contact distance, TRP 655 C to compound atom / van der Waals contact distance, MASP-2 GLY 528 atom CA / van der Waals contact distance TRP 655 atom CZ3 / van der Waals contact distance TRP 655 atom N / van der Waals contact distance TRP 655 atom CE3 / van der Waals contact distance GLY 656 atom C / van der Waals contact distance GLY 656 atom CA / van der Waals contact distance GLY 656 atom O / van der Waals contact distance, MASP-2 TYR 607 atom CD1 / van der Waals contact distance, MASP-2 PRO 606 atom O / d(C3,CA1) / d(CA1,N1)2 / d(H4,O1) / d(H4,O2) / d(O1,O2) / d(CA1,O2) / d(CA6,O1) / d(CA6,O2) / d(CA1,C5) / d(O2,H3) / d(N2,C2) / d(CA5,N2) / d(N2,C4) / d(N2,C6) / d(N2,CA3) / d(N2,O3) / d(O4,H2): unit not given beside the values; settings: for H-bond distance to MASP-2 GLY 656 atom N / H-bond distance to MASP-2 GLY 656 atom O / H-bond distance to MASP-2 SER 654 atom O: Table A1 (H-Bonds); for H-bond distance to MASP-2 GLY 656 atom N: GLY 656 N; for H-bond distance to MASP-2 GLY 656 atom O: GLY 656 O; for H-bond distance to MASP-2 SER 654 atom O: SER 654 O; for van der Waals contact distance, MASP-2 TYR 607 atom CD1: Table A2-4; for van der Waals contact distance TRP 655 atom CE3: MASP-2 TRP 655 CE3, compound atom in line below; for van der Waals contact distance TRP 655 atom CZ3: MASP-2 TRP 655 CZ3; for Ligand-pharmacophore element distance, pharmacophore element C2 / Ligand-pharmacophore element distance, pharmacophore element C3 / Ligand-pharmacophore element distance, pharmacophore element C4 / Ligand-pharmacophore element distance, pharmacophore element C5 / Ligand-pharmacophore element distance, pharmacophore element C6 / Ligand-pharmacophore element distance, pharmacophore element C7 / Ligand-pharmacophore element distance, pharmacophore element CA1 / Ligand-pharmacophore element distance, pharmacophore element CA2 / Ligand-pharmacophore element distance, pharmacophore element CA3 / Ligand-pharmacophore element distance, pharmacophore element CA4 / Ligand-pharmacophore element distance, pharmacophore element CA5 / Ligand-pharmacophore element distance, pharmacophore element CA6: Table A4-1; for d(N2,CA2) / d(O2,H3) / d(O2,N2): Table A5-2 pharmacophore distance, S3/S4 region; for a(O1, O2, H3) / a(O1, O2, N2) / a(O2, N2, CA2): Table A6-2 pharmacophore angle; for Pharmacophore torsion angle a(O1, O2, N2, CA2): Table A7-2; for van der Waals contact distance, MASP-2 amino acid atom to compound atom: ARG 630;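 on Ligand-pharmacophore element distance, pharmacophore element C2: distance from averaged pharmacophore element to bound ligand; missing value means element absent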;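 on Ligand-pharmacophore element distance, pharmacophore element C3: distance from averaged pharmacophore element to bound ligand; missing value means element absent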;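 on Ligand-pharmacophore element distance, pharmacophore element C4: distance from averaged pharmacophore element to bound ligand; missing value means element absent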;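 on Ligand-pharmacophore element distance, pharmacophore element C5: distance from averaged pharmacophore element to bound ligand; missing value means element absent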
# Sequence of MASP-2 CCP2-SP (O00187 445-686): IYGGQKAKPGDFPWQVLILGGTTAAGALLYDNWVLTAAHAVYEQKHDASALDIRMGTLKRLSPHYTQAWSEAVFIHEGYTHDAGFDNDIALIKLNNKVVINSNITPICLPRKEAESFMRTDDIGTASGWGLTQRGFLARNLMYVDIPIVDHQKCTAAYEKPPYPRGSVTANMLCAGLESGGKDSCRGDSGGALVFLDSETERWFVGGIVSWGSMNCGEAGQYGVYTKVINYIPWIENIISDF
# Sequence of MASP-2 CCP2-SP (O00187 364-432 partner): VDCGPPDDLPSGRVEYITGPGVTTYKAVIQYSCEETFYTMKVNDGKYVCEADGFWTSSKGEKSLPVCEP
# Method in brief: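 E. coli-expressed CCP2-SP (±6His); apo crystals soaked 1–2× in inhibitor-containing crystallization solution; optional 20% glycerol cryoprotection, LN2 flash-cool; synchrotron data at 1.0 wavelength; MR using 1Q3X portions, partial refinement; single pose analysed when several seen.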
# [2] = tested on: Lectin Pathway; assay: Lectin Pathway Activation Assay in Human Serum (mannan-coated ELISA, C3c detection); assay type: biochemical; settings: 1% human serum
# Protocol: Microtiter ELISA plate was coated with mannan from Saccharomyces cerevisiae (Sigma-Aldrich, M7504) for overnight at 4° C. in coating buffer [15 mM Na2CO3, 35 mM NaHCO3].
# [3] = Table A5-1 pharmacophore: distance between elements, S2/S1 region
# [4] = Table A7-1, between pharmacophore elements of the bound compound
# [5] = between pharmacophore elements of the bound compound
structure (smiles),measurement,setting,value
"Cc1cc(Cl)cc(CNC(=O)[C@H](C)NC(=O)[C@H]2C[C@H](Cc3ccccc3)CN2)c1O [compound 1307, (2R,4S)-4-Benzyl-N—((S)-1-((5-chloro-2-hydroxy-3-methylbenzyl)amino)-1-oxopropan-2-yl)pyrrolidine-2-carboxamide]",H-bond distance to MASP-2 GLY 656 atom N,[1],2.95
same,H-bond distance to MASP-2 GLY 656 atom O,[1],2.86
same,H-bond distance to MASP-2 SER 654 atom O,[1],2.91
same,"van der Waals contact distance, MASP-2 HIS 483 atom NE2",[1]; Table A2-1,3.5
same,"van der Waals contact distance, MASP-2 GLY 528 atom CA",[1]; Table A2-2,3.75
same,"van der Waals contact distance, MASP-2 PHE 529 atom CD2",[1]; Table A2-3,3.69
same,"van der Waals contact distance, MASP-2 PHE 529 atom CZ",[1]; Table A2-3,3.86
same,"van der Waals contact distance, MASP-2 TYR 607 atom CD1",[1],3.83
same,"van der Waals contact distance, SER 654 C to compound atom",[1]; Table A2-11,3.79
same,"van der Waals contact distance, VAL 653 CG1 to compound atom",[1]; Table A2-11,3.47
same,van der Waals contact distance TRP 655 atom CE3,[1]; Table A2-13,3.75
same,van der Waals contact distance TRP 655 atom CZ3,[1]; Table A2-13,3.76
same,"Ligand-pharmacophore element distance, pharmacophore element C2",[1],0
same,"Ligand-pharmacophore element distance, pharmacophore element C3",[1],0
same,"Ligand-pharmacophore element distance, pharmacophore element C4",[1],0
same,"Ligand-pharmacophore element distance, pharmacophore element C5",[1],0.37
same,"Ligand-pharmacophore element distance, pharmacophore element C6",[1],0
same,"Ligand-pharmacophore element distance, pharmacophore element C7",[1],0.76
same,"Ligand-pharmacophore element distance, pharmacophore element CA1",[1],1.55
same,"Ligand-pharmacophore element distance, pharmacophore element CA2",[1],0.17
same,"Ligand-pharmacophore element distance, pharmacophore element CA3",[1],0
same,"Ligand-pharmacophore element distance, pharmacophore element CA4",[1],0
same,"Ligand-pharmacophore element distance, pharmacophore element CA5",[1],0
same,"Ligand-pharmacophore element distance, pharmacophore element CA6",[1],0
same,"d(CA1,C5)",[1]; [3],3.13
same,"d(CA1,O1)",[1]; [3],4.60
same,"d(CA1,O2)",[1]; [3],4.57
same,"d(CA1,O4)",[1]; [3],2.74
same,"d(H4,O1)",[1]; [3],3.15
same,"d(H4,O2)",[1]; [3],3.80
same,"d(O1,O2)",[1]; [3],3.17
same,"d(O4,H2)",[1]; [3],0.98
same,"d(N2,CA2)",[1],6.14
same,"d(O2,H3)",[1],2.09
same,"d(O2,N2)",[1],2.81
same,"a(C5, CA1, O1)",[1]; Table A6-1 pharmacophore angle,161.35
same,"a(CA1, O1, O2)",[1]; Table A6-1 pharmacophore angle,109.57
same,"a(CA1, O4, H2)",[1]; Table A6-1 pharmacophore angle,127.11
same,"a(O1, CA1, C7)",[1]; Table A6-1 pharmacophore angle,121.00
same,"a(O1, CA1, O4)",[1]; Table A6-1 pharmacophore angle,66.49
same,"a(O1, O2, H4)",[1]; Table A6-1 pharmacophore angle,126.83
same,"a(O1, O2, H3)",[1],129.22
same,"a(O1, O2, N2)",[1],142.81
same,"a(O2, N2, CA2)",[1],155.37
same,"Pharmacophore torsion angle a(C5, CA1, O1, H4)",[1]; [4],−6.78
same,"Pharmacophore torsion angle a(C7, CA1, O1, H4)",[1]; [4],−161.01
same,"Pharmacophore torsion angle a(H4, O1, O2, H3)",[1]; [4],−163.22
same,"Pharmacophore torsion angle a(H4, O1, O2, N2)",[1]; [4],−170.13
same,"Pharmacophore torsion angle a(O1, H4, O2, CA1)",[1]; [4],−88.47
same,"Pharmacophore torsion angle a(O1, O2, N2, CA2)",[1]; [5],138.35
same,IC50,[2],50 to 500 nM
"C[C@H](NC(=O)[C@H]1C[C@H](Cc2ccccc2)CN1)C(=O)NCc1cnc2[nH]cc(Cl)c2c1 [compound 1334, (2R,4S)-4-Benzyl-N—((S)-1-(((3-chloro-1H-pyrrolo[2,3-b]pyridin-5-yl)methyl)amino)-1-oxopropan-2-yl)pyrrolidine-2-carboxamide]",H-bond distance to MASP-2 GLY 656 atom N,[1],3.16
same,H-bond distance to MASP-2 GLY 656 atom O,[1],2.83
same,H-bond distance to MASP-2 SER 654 atom O,[1],2.81
same,"van der Waals contact distance, MASP-2 HIS 483 atom CD2",[1]; Table A2-1,3.66
same,"van der Waals contact distance, MASP-2 HIS 483 atom CE1",[1]; Table A2-1,3.84
same,"van der Waals contact distance, MASP-2 PHE 529 atom CD2",[1]; Table A2-3,3.73
same,"van der Waals contact distance, MASP-2 TYR 607 atom CD1",[1],3.81
same,"van der Waals contact distance, MASP-2 amino acid atom to compound atom","[1]; Table A2-9, AA atoms CG, CZ",3.89
same,"van der Waals contact distance, MASP-2 amino acid atom to compound atom","[1]; Table A2-9 second part, AA atoms N, NE, NH1",3.59
same,van der Waals contact distance TRP 655 atom CE3,[1]; Table A2-13,3.66
same,van der Waals contact distance TRP 655 atom CZ3,[1]; Table A2-13,3.67
same,van der Waals contact distance TRP 655 atom N,"[1]; Table A2-13, MASP-2 TRP 655 N",3.68
same,"Ligand-pharmacophore element distance, pharmacophore element C2",[1],0
same,"Ligand-pharmacophore element distance, pharmacophore element C3",[1],0
same,"Ligand-pharmacophore element distance, pharmacophore element C4",[1],0
same,"Ligand-pharmacophore element distance, pharmacophore element C5",[1],0.34
same,"Ligand-pharmacophore element distance, pharmacophore element C6",[1],0
same,"Ligand-pharmacophore element distance, pharmacophore element C7",[1],0
same,"Ligand-pharmacophore element distance, pharmacophore element CA1",[1],1.04
same,"Ligand-pharmacophore element distance, pharmacophore element CA2",[1],0.7
same,"Ligand-pharmacophore element distance, pharmacophore element CA3",[1],0
same,"Ligand-pharmacophore element distance, pharmacophore element CA4",[1],0
same,"Ligand-pharmacophore element distance, pharmacophore element CA5",[1],0
same,"Ligand-pharmacophore element distance, pharmacophore element CA6",[1],0
same,"d(CA1,C5)",[1]; [3],3.47
same,"d(CA1,O1)",[1]; [3],5.33
same,"d(CA1,O2)",[1]; [3],4.84
same,"d(CA1,O4)",[1]; [3],1.75
same,"d(H4,O1)",[1]; [3],3.14
same,"d(H4,O2)",[1]; [3],3.74
same,"d(O1,O2)",[1]; [3],3.24
same,"d(N2,CA2)",[1],6.09
same,"d(O2,H3)",[1],2.99
same,"d(O2,N2)",[1],2.77
same,"a(C5, CA1, O1)",[1]; Table A6-1 pharmacophore angle,150.49
same,"a(CA1, O1, O2)",[1]; Table A6-1 pharmacophore angle,100.10
same,"a(O1, CA1, O4)",[1]; Table A6-1 pharmacophore angle,68.25
same,"a(O1, O2, H4)",[1]; Table A6-1 pharmacophore angle,124.74
same,"a(O1, O2, H3)",[1],136.63
same,"a(O1, O2, N2)",[1],143.82
same,"a(O2, N2, CA2)",[1],155.99
same,"Pharmacophore torsion angle a(C5, CA1, O1, H4)",[1]; [4],2.51
same,"Pharmacophore torsion angle a(H4, O1, O2, H3)",[1]; [4],110.57
same,"Pharmacophore torsion angle a(H4, O1, O2, N2)",[1]; [4],−172.73
same,"Pharmacophore torsion angle a(O1, H4, O2, CA1)",[1]; [4],−93.67
same,"Pharmacophore torsion angle a(O1, O2, N2, CA2)",[1]; [5],133.84
same,IC50,[2],50 to 500 nM
